One data set relates to estrogen receptors. The settings on record: relative to 17p-estradiol 100; cited from earlier work.
A further data set has as its system bone resorption. To be noted: Tobe et al 1997; cited from earlier work.
The subject of data set [1] is post-menopausal women. The experiment in a line: Greene Score for menopausal symptoms, 3 month study (Example 4). The format is in vivo, human. To be noted: 15 mg or 60 mg daily for 3 months, compared to placebo control group. The method, then: A group of 36 post-menopausal women experiencing menopausal symptoms were treated with a composition containing either 15 mg daidzein or 60 mg daidzein administered on a daily basis for 3 months.

Data set [2] in a line: pharmacokinetic study of formononetin following oral administration. The format is in vivo. The settings on record: blood; human, oral 9.3 mg formononetin; read-out: half life in the blood stream (converted). On the procedure:
A pharmacokinetic study involving 16 human patients aged between 18 and 40 was conducted, to determine the pharmacokinetics of formononetin following oral administration. Each patient was orally administered 9.3 mg of formononetin with 200 ml of purified water and maintained a low isoflavone diet for one week prior to, and during the study. Blood samples were taken at 0, 0.25, 0.5, 0.75, 1.0, 1.5, 2.0, 2.5, 3, 4, 5, 6, 8, 10 and 12 and 24 hours post administration, and analysed for formononetin concentration.

Data set [3] has as its system post-menopausal women. The experiment in a line: six month double-blind placebo-controlled study of bone density and bone resorption markers (Example 7). The format is in vivo, human. To be noted: 25 mg, 50 mg or 75 mg daily, six months, with 1200 mg calcium per day. The method, then:
The second study (double-blind, placebo-controlled) involved a six month study of the effects of phytoestrogen formononetin on bone resorption markers in twenty post-menopausal women. The aim of the study was to evaluate the efficacy of a defined daily quantity of isoflavone at 25 mg, 50 mg or 75 mg on bone resorption makers in post menopausal women and compare these to normal controls The effects of isoflavones on endometrial thickness, circulatory lipids and coagulation factors were also evaluated. Subjects were also given supplemental calcium in a dose of 1200 mg per day.

Data set [4] has as its system post-menopausal women. Kind of data set: bone density and bone turnover markers in high risk group for osteoporosis (Example 6). The format is in vivo, human. The settings on record: 60 mg daily for three months, preliminary results. On the procedure: A similar study involving 10 post-menopausal women in a high risk group for osteoporosis were also administered 60 mg formononetin daily for three months.

For data set [5], the system named is post-menopausal women. Kind of data set: Greene Score for menopausal symptoms, 60 mg formononetin (Example 6). The class given is in vivo, human. The settings on record: 60 mg daily for three months, relative to a control group. The method, then:
15 post-menopausal women who are experiencing menopausal systems are each administered 60 mg formononetin daily for three months.

Another data set deals with endometrial cancer cells. The settings on record: Markiewicz et al 1993; potentiated cancer cell growth; cited from earlier work.

Molecules are shown by their SMILES.

A word on the half-life: it is the time in which the quantity being followed falls by half.

In the case of `COc1ccc(-c2coc3cc(O)cc(O)c3c2=O)cc1` [biochanin, reference compound], the relative estrogenicity with estrogen receptors is given as 0.07.
Take `O=c1c(-c2ccc(O)cc2)coc2cc(O)ccc12` [daidzein, 7,4-dihydroxy isoflavone]: the relative estrogenicity in the data set with estrogen receptors is 0.09. The “effect on bone resorption” value in the data set on bone resorption is “stimulates bone resorption”. Also, the “Greene Score for menopausal symptoms” value in the data set on post-menopausal women [1] is on record as “significant decrease”.
Consider `COc1ccc(-c2coc3cc(O)ccc3c2=O)cc1` [formononetin], for which the half-life in data set [2] was roughly 20 h. Besides, in the data set on estrogen receptors, the relative estrogenicity is given as 0.01. For the same compound, in the data set with post-menopausal women [3], the “bone density at three sites of the forearm” value is “significant improvement in bone density”. Besides, the “protection against osteoporosis by bone density and bone turnover markers” value in the data set on post-menopausal women [4] is given as “protection against osteoporosis”. Also, the “Greene Score for menopausal symptoms” value in the data set with post-menopausal women [1] and in the data set on post-menopausal women [5] was “significant decrease” each time.
For the compound `O=c1c(-c2ccc(O)cc2)coc2cc(O)cc(O)c12` [genistein], in the data set on endometrial cancer cells, the “estrogen effect on endometrial cancer cells” value is “exhibited an estrogen effect on endometrial cancer cells”.

Values taken from patent US6340703B1, “Treatment or prevention of osteoporosis” (Novogen, Inc., priority 1997, dated 2002).
